Publication PMC9841524, “Structure-Based Rational Design of Small α-Helical Peptides with Broad-Spectrum Activity against Multidrug-Resistant Pathogens” (Journal of Medicinal Chemistry, 2022)
Where no end group is shown, it is not given here.

These substances were tested on S. aureus (ATCC 29213) (assay: MIC, standard microtiter dilution (CLSI)). Conditions: not given.
Assay type: cell-based
Description: (§1) Description of the characteristics and growth conditions of various bacterial strains used in the study are provided in the Supporting Information (Table S3). Antibacterial susceptibility testing was carried out using a standard microtiter dilution method recommended by the clinical and laboratory standard institute (CLSI) and measured as a minimum inhibitory concentration (MIC), the lowest peptide concentration that inhibited bacterial growth. Briefly, the overnight grown cultures in the recommended broth for each bacterial strain were diluted in cation-adjusted Mueller Hinton Broth (CAMHB) to give an inoculum of 10^6 colony-forming units (CFU)/mL. A 2-fold serially diluted test peptide solution (100 μL) was added to the microtiter plates. After adding bacterial suspension (100 μL), the plates were incubated at 37 °C for 24 h, and the MICs were determined. The same protocol was used to determine the MICs in the presence of salts and serum except using the media supplemented with various cationic salts (150 mM NaCl, 4.5 mM KCl, 6 mM NH4Cl, 1 mM MgCl2, and 2 mM CaCl2) or 25% FBS. The data was acquired from three independent assays performed in triplicate.
(§2) The bacterial strains employed in this study were obtained from the American Type Culture Collection (ATCC). Each strain was propagated as recommended by the ATCC, and each strain was stored as a frozen glycerol stock at -80°C. A bacterial colony was grown on the appropriate agar as indicated in Table S1 and was used to inoculate the appropriate broth. The culture was incubated at the appropriate conditions, as mentioned in Table S1. Following the incubation, the culture was diluted to an optical density 625 nm (OD625) of 0.1 in cation adjusted Mueller Hinton Broth (CAMHB), which is equivalent to 1 × 10^8 CFU/mL. The culture was further diluted to 1 × 10^6 CFU/mL, which was used to conduct the MIC determination assay. For the S. pneumoniae strains, CAMHB + 2.5% lysed horse blood was required for the assay. The strains with their […]
(§3) Table S3. Description of the characteristics and growth conditions of various bacterial strains

Substance | MIC against S. aureus [µg/mL]
RWARRWARWWR-NH2 [5b] | 50

Same assay, conditions: broth microdilution (CLSI), CAMHB, 10^6 CFU/mL, 37 °C, 24 h; highest MIC of three independent experiments in triplicate

Substance | MIC, S. aureus (ATCC 29213) [µg/mL]
RRWWRRW-NH2 [1b] | 50
RWARRAWRAW-NH2 [4e] | > 100
RWARRWARWWR-NH2 [5b] | 50
RWARRWWR-NH2 [2c] | > 100
RWARRWWRA-NH2 [3c] | > 100
RWIRRWIRWWR-NH2 [5c] | 50

Same assay, conditions: value in parentheses (μM); broth microdilution (CLSI), CAMHB, 37 °C, 24 h

Substance | MIC, S. aureus (ATCC 29213) [µM]
RRWWRRW-NH2 [1b] | 41.65
RWARRAWRAW-NH2 [4e] | > 70.74
RWARRWARWWR-NH2 [5b] | 29.67
RWARRWWR-NH2 [2c] | > 78.65
RWARRWWRA-NH2 [3c] | > 74.48
RWIRRWIRWWR-NH2 [5c] | 28.26

The substances below were run on E. coli (ATCC 25922) (assay: not given). Conditions: broth microdilution (CLSI), CAMHB, 10^6 CFU/mL, 37 °C, 24 h; highest MIC of three independent experiments in triplicate.
Description: as §1, §2, §3

Substance | MIC, E. coli (ATCC 25922) [µg/mL]
RRWWRRW-NH2 [1b] | > 100
RWARRAWRAW-NH2 [4e] | > 100
RWARRWARWWR-NH2 [5b] | 100
RWARRWWR-NH2 [2c] | > 100
RWARRWWRA-NH2 [3c] | > 100
RWIRRWIRWWR-NH2 [5c] | 100

Same assay, conditions: value in parentheses (μM); broth microdilution (CLSI), CAMHB, 37 °C, 24 h

Substance | MIC, E. coli (ATCC 25922) [µM]
RRWWRRW-NH2 [1b] | > 83.30
RWARRAWRAW-NH2 [4e] | > 70.74
RWARRWARWWR-NH2 [5b] | 59.35
RWARRWWR-NH2 [2c] | > 78.65
RWARRWWRA-NH2 [3c] | > 74.48
RWIRRWIRWWR-NH2 [5c] | 56.52

What follows are substances tested on MRSA (ATCC BAA-1556) (assay: not given). Conditions: broth microdilution (CLSI), CAMHB, 10^6 CFU/mL, 37 °C, 24 h; highest MIC of three independent experiments in triplicate.
Description: as §1, §2, §3

Substance | MIC, MRSA (ATCC BAA-1556) [µg/mL]
RRWWRRW-NH2 [1b] | 100
RWARRAWRAW-NH2 [4e] | > 100
RWARRWARWWR-NH2 [5b] | 100
RWARRWWR-NH2 [2c] | > 100
RWARRWWRA-NH2 [3c] | > 100
RWIRRWIRWWR-NH2 [5c] | 50

Same assay, conditions: value in parentheses (μM); broth microdilution (CLSI), CAMHB, 37 °C, 24 h

Substance | MIC, MRSA (ATCC BAA-1556) [µM]
RRWWRRW-NH2 [1b] | 83.30
RWARRAWRAW-NH2 [4e] | > 70.74
RWARRWARWWR-NH2 [5b] | 59.35
RWARRWWR-NH2 [2c] | > 78.65
RWARRWWRA-NH2 [3c] | > 74.48
RWIRRWIRWWR-NH2 [5c] | 28.26

The substances below were run on P. aeruginosa (ATCC 27883) (assay: MIC, standard microtiter dilution (CLSI)). Conditions: broth microdilution (CLSI), CAMHB, 10^6 CFU/mL, 37 °C, 24 h; highest MIC of three independent experiments in triplicate.
Assay type: cell-based, Pseudomonas aeruginosa
Description: as §1, §2, §3

Substance | MIC, P. aeruginosa (ATCC 27883) [µg/mL]
RRWWRRW-NH2 [1b] | > 100
RWARRAWRAW-NH2 [4e] | > 100
RWARRWARWWR-NH2 [5b] | 100
RWARRWWR-NH2 [2c] | > 100
RWARRWWRA-NH2 [3c] | > 100
RWIRRWIRWWR-NH2 [5c] | 50

Same assay, conditions: value in parentheses (μM); broth microdilution (CLSI), CAMHB, 37 °C, 24 h

Substance | MIC, P. aeruginosa (ATCC 27883) [µM]
RRWWRRW-NH2 [1b] | > 83.30
RWARRAWRAW-NH2 [4e] | > 70.74
RWARRWARWWR-NH2 [5b] | 59.35
RWARRWWR-NH2 [2c] | > 78.65
RWARRWWRA-NH2 [3c] | > 74.48
RWIRRWIRWWR-NH2 [5c] | 28.26

These substances were tested on K. pneumoniae (ATCCBAA-1705) (assay: MIC, standard microtiter dilution (CLSI)). Conditions: broth microdilution (CLSI), CAMHB, 10^6 CFU/mL, 37 °C, 24 h; highest MIC of three independent experiments in triplicate.
Assay type: cell-based, Klebsiella pneumoniae
Description: as §1, §2, §3

Substance | MIC, K. pneumoniae (ATCCBAA-1705) [µg/mL]
RRWWRRW-NH2 [1b] | > 100
RWARRAWRAW-NH2 [4e] | > 100
RWARRWARWWR-NH2 [5b] | > 100
RWARRWWR-NH2 [2c] | > 100
RWARRWWRA-NH2 [3c] | > 100
RWIRRWIRWWR-NH2 [5c] | 100

Same assay, conditions: value in parentheses (μM); broth microdilution (CLSI), CAMHB, 37 °C, 24 h

Substance | MIC, K. pneumoniae (ATCCBAA-1705) [µM]
RRWWRRW-NH2 [1b] | > 83.30
RWARRAWRAW-NH2 [4e] | > 70.74
RWARRWARWWR-NH2 [5b] | > 59.35
RWARRWWR-NH2 [2c] | > 78.65
RWARRWWRA-NH2 [3c] | > 74.48
RWIRRWIRWWR-NH2 [5c] | 56.52

These substances were tested on human red blood cells (hRBCs) (assay: Hemolytic assay). Conditions: hRBC suspension 4% in PBS, 2 h, 37 °C, hemoglobin release at 567 nm; 1% Triton X-100 = 100%.
Assay type: cell-based
Description: The hemolytic activity of all peptides (1a–8d) was determined using hRBC. The assay was conducted by adding 75 μL of 2-fold serially diluted peptides to 75 μL of hRBC suspension (4% in PBS). The plates were incubated for 2 h at 37 °C without agitation. In order to determine the hemolysis at each tested concentration of peptides, the plate was centrifuged, and 100 μL of the supernatant was transferred to another 96-well plate to determine hemoglobin release spectrophotometrically at 567 nm. Percent hemolysis was calculated by the following formula [drawing 1] where A represents the absorbance of the peptide sample at 567 nm and A0 and At represent zero percent and 100% hemolysis determined in phosphate buffer saline and 1% Triton X-100, respectively.

Substance | HC50 (concentration at which 50% hemolysis was observed) [µg/mL]
RRWWRRW-NH2 [1b] | > 500
RWARRAWRAW-NH2 [4e] | > 500
RWARRWARWWR-NH2 [5b] | > 500
RWARRWWR-NH2 [2c] | > 500
RWARRWWRA-NH2 [3c] | > 500
RWIRRWIRWWR-NH2 [5c] | > 500

Same assay, conditions: value in parentheses (μM); hRBC 4% in PBS, 2 h, 37 °C, 567 nm

Substance | HC50 (concentration at which 50% hemolysis was observed) [µM]
RRWWRRW-NH2 [1b] | > 416.52
RWARRAWRAW-NH2 [4e] | > 353.69
RWARRWARWWR-NH2 [5b] | > 296.74
RWARRWWR-NH2 [2c] | > 393.23
RWARRWWRA-NH2 [3c] | > 372.42
RWIRRWIRWWR-NH2 [5c] | > 282.62
